Results as given in patent US20150164833A1, “NUTRITIONAL COMPOSITION CONTAINING A NEUROLOGIC COMPONENT OF URSOLIC ACID AND USES THEREOF” (MEAD JOHNSON NUTRITION COMPANY, priority 2013, published 2015).

Tested on: human adipose-derived stem cells (hADSCs)
Test: Neurogenesis (neuronal differentiation) of hADSCs in serum-free neuronal differentiation medium, phase contrast microscopy
Assay type: cell-based
Experimental: This example describes the neurogenesis of hADSCs by ursolic acid as compared to DHA (positive control) and hADSCs cultured in the absence of either ursolic acid and DHA (negative control). Ursolic acid was purchased from Sigma-Aldrich (Cat. No. U6753) and diluted in 95% ethanol to a concentration of […], giving a clear faint yellow stick solution that was then stored at −20° C.
hADSCs were purchased from Invitrogen®, also known as Life Technologies, of Carlsbad, Calif., U.S.A., and were cultured as near confluent monolayers in 100 mm culture plates within a maintenance medium consisting of Complete MesenPro RS™ medium with growth supplement and L-glutamine, also obtained from Invitrogen®. The process of culturing, passage, and seeding the hADSCs is described below. The cells were then subjected to removal and reseeded at a density of 0.5-1×10^4 cells/mL onto a 24-well culture plate with poly-L-ornithine and bovine plasma fibronectin coating. The culture medium is the same as the aforementioned maintenance medium. Three days after seeding, the culture medium was changed to a neuronal differentiation medium.
The subculture of hADSCs was performed when cell culture reached confluence. […]

C[C@H]1[C@H](C)CC[C@]2(C(=O)O)CC[C@]3(C)C(=CC[C@@H]4[C@@]5(C)CC[C@H](O)C(C)(C)[C@@H]5CC[C@]43C)[C@H]12 [ursolic acid, 3-beta-3-hydroxy-urs-12-ene-28-oic-acid]
neurogenesis of hADSCs (cells undergoing neurogenesis) (30-120 μg/mL ursolic acid, phase contrast microscopy at 24, 48 and 96 hours): A large percentage of cells underwent neurogenesis | neuronal morphology of hADSCs (ursolic acid at 60 μg/mL, phase contrast microscopy, FIG. 1C): neuronal morphological changes and neurite outgrowth
